The values below come from ChEMBL document CHEMBL3044990, “Synthesis and Insecticidal Activity of 5-Dimethylamino-1, 3dithianes” (1991).

Holding throughout (type): functional
The subject of test [1] is Henosepilachna vigintioctopunctata. As to the kind of experiment: Insecticidal activity against third-instar larvae of Henosepilachna vigintioctopunctata assessed as mortality after 2 days. Conditions: 48 h.
A further test concerns Tetranychus urticae. As to the kind of experiment: Insecticidal activity against Tetranychus urticae (two-spotted spider mite) in kidney bean plant leaf assessed as mortality at 500 ppm after 2 days. Conditions: 48 h.
Another test has as its system Spodoptera litura. As to the kind of experiment: Insecticidal activity against third-instar larvae of Spodoptera litura in soybean seedlings assessed as mortality at 500 ppm after 48 hr.
The test system of a further test is Chilo suppressalis. As to the kind of experiment: Insecticidal activity against 5th instar larva of Chilo suppressalis assessed as mortality at 50 ug/g after 48 hr.
The next test deals with Laodelphax striatellus. As to the kind of experiment: Insecticidal activity against 3rd instar larva of Laodelphax striatella (small brown planthopper) assessed as mortality at 50 ppm after 6 days. Conditions: 144 h.

≈ marks a conversion by molar mass, not a printed value.

In the case of `CCCNC(=O)C1(C#N)SCC(N(C)C)CS1` (stereo not given), the LC50 in test [1] is 11 µg/mL (≈ 40.2 µM). The mortality at 500 ppm in the test on Tetranychus urticae came out at 100%; in the test with Spodoptera litura, 60%. In the test on Chilo suppressalis, the mortality was determined as 100%. In addition, the mortality at 50 ppm with Laodelphax striatellus was 20%.
Turning to `CCCCCCCCCNC(=O)C1(C#N)SCC(N(C)C)CS1` (stereo not given), the LC50 in test [1] was 23 µg/mL (≈ 64.3 µM). The mortality at 500 ppm in the test with Tetranychus urticae was 100%; in the test on Spodoptera litura, 90%. Moreover, in the test with Chilo suppressalis, the mortality is 100%. In addition, in the test on Laodelphax striatellus, the mortality at 50 ppm came to 100%.
Consider `CN1CCN(C(=O)C2(C#N)SCC(N(C)C)CS2)CC1` (stereo not given), for which, in test [1], the LC50 is 20 µg/mL (≈ 63.6 µM). Further, the values for the mortality at 500 ppm in the test with Tetranychus urticae and in the test with Spodoptera litura were 100% and 20%, respectively. The mortality in the test on Chilo suppressalis is listed as 100%. In addition, the mortality at 50 ppm in the test on Laodelphax striatellus is 35%.
For `CCCCCNC(=O)C1(C#N)SCC(N(C)C)CS1` (stereo not given), in test [1], the LC50 amounted to 10 µg/mL (≈ 33.2 µM). Besides, the mortality at 500 ppm in the test with Tetranychus urticae and in the test on Spodoptera litura was 50% each time. Also, the mortality with Chilo suppressalis was determined as 100%. The mortality at 50 ppm with Laodelphax striatellus worked out at 29%.
In the case of `CCCCCCCNC(=O)C1(C#N)SCC(N(C)C)CS1` (stereo not given), in test [1], the 50% lethal concentration (LC50) came to 23 µg/mL (≈ 69.8 µM). Besides, the values for the mortality at 500 ppm in the test with Tetranychus urticae and with Spodoptera litura were 90% and 80%, respectively. In addition, the mortality in the test with Chilo suppressalis was 100%. Further, the mortality at 50 ppm in the test on Laodelphax striatellus was 80%.
Take `CN(C)C(=O)C1(C#N)SCC(N(C)C)CS1` (stereo not given): the LC50 in test [1] turned out to be 11 µg/mL (≈ 42.4 µM). Further, the mortality at 500 ppm with Tetranychus urticae is 70%; with Spodoptera litura, 80%. Moreover, the mortality with Chilo suppressalis was found to be 100%. For the same compound, the mortality at 50 ppm in the test with Laodelphax striatellus was determined as 20%.
